# Test results from PubChem BioAssay (NCI).
#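 The compound was tested at five concentrations on cells cultured in 96-well plates, with a 48-hour exposure period. Here, GI50 denotes the concentration required for 50% inhibition of growth. TGI denotes the concentration required for complete inhibition of growth.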
# Key:
# Assay in all cases: growth of human tumour cells (NCI), 48 h
# M14 melanoma = system: M14 melanoma
# 786-0 renal = system: 786-0 renal
# BT-549 breast = system: BT-549 breast
# ACHN renal = system: ACHN renal
# SF-539 CNS = system: SF-539 CNS
# UACC-62 melanoma = system: UACC-62 melanoma
# HOP-62 NSCLC = system: HOP-62 NSCLC
# HCT-15 colon = system: HCT-15 colon
# OVCAR-4 ovarian = system: OVCAR-4 ovarian
# A549 NSCLC = system: A549 NSCLC
# IGROV1 ovarian = system: IGROV1 ovarian
# EKVX NSCLC = system: EKVX NSCLC
# A498 renal = system: A498 renal
# HCT-116 colon = system: HCT-116 colon
# CAKI-1 renal = system: CAKI-1 renal
# MCF7 breast = system: MCF7 breast
# KM12 colon = system: KM12 colon
# HS 578T breast = system: HS 578T breast
# TK-10 renal = system: TK-10 renal
# OVCAR-5 ovarian = system: OVCAR-5 ovarian
# COLO 205 colon = system: COLO 205 colon
# LOX IMVI melanoma = system: LOX IMVI melanoma
# SNB-19 CNS = system: SNB-19 CNS
# OVCAR-3 ovarian = system: OVCAR-3 ovarian
# HL-60(TB) leukemia = system: HL-60(TB) leukemia
# SNB-75 CNS = system: SNB-75 CNS
# RXF 393 renal = system: RXF 393 renal
# T-47D breast = system: T-47D breast
# SF-268 CNS = system: SF-268 CNS
# MDA-MB-231 breast = system: MDA-MB-231 breast
# OVCAR-8 ovarian = system: OVCAR-8 ovarian
# SK-OV-3 ovarian = system: SK-OV-3 ovarian
# U251 CNS = system: U251 CNS
# HT29 colon = system: HT29 colon
# MALME-3M melanoma = system: MALME-3M melanoma
# DU-145 prostate = system: DU-145 prostate
# NCI-H23 lung = system: NCI-H23 lung
# NCI-H460 lung = system: NCI-H460 lung
# NCI-H522 lung = system: NCI-H522 lung
# SK-MEL-2 melanoma = system: SK-MEL-2 melanoma
# SF-295 CNS = system: SF-295 CNS
# SK-MEL-28 melanoma = system: SK-MEL-28 melanoma
# SK-MEL-5 melanoma = system: SK-MEL-5 melanoma
# SN12C renal = system: SN12C renal
# HCC-2998 colon = system: HCC-2998 colon
# K-562 leukemia = system: K-562 leukemia
# SW-620 colon = system: SW-620 colon
# MDA-MB-435 = system: MDA-MB-435
smiles,measurement,setting,value
CC1=C([Se]CC(OC(=O)[C@@H](CSSC(C)(C)C)NC(=O)OC(C)(C)C)C(=O)NC(C)(C)C)C(=O)c2ccccc2C1=O (stereo partly specified),GI50,M14 melanoma,1260 nM
same,TGI,M14 melanoma,2580 nM
same,GI50,786-0 renal,1650 nM
same,TGI,786-0 renal,3010 nM
same,GI50,BT-549 breast,1240 nM
same,TGI,BT-549 breast,2500 nM
same,GI50,ACHN renal,1510 nM
same,TGI,ACHN renal,2840 nM
same,GI50,SF-539 CNS,1430 nM
same,TGI,SF-539 CNS,2740 nM
same,GI50,UACC-62 melanoma,1510 nM
same,TGI,UACC-62 melanoma,2840 nM
same,GI50,HOP-62 NSCLC,762 nM
same,TGI,HOP-62 NSCLC,2810 nM
same,GI50,HCT-15 colon,1660 nM
same,TGI,HCT-15 colon,3120 nM
same,GI50,OVCAR-4 ovarian,1490 nM
same,TGI,OVCAR-4 ovarian,2870 nM
same,GI50,A549 NSCLC,1280 nM
same,TGI,A549 NSCLC,2660 nM
same,GI50,IGROV1 ovarian,1150 nM
same,TGI,IGROV1 ovarian,2360 nM
same,GI50,EKVX NSCLC,1510 nM
same,TGI,EKVX NSCLC,3110 nM
same,GI50,A498 renal,1420 nM
same,TGI,A498 renal,3830 nM
same,GI50,HCT-116 colon,490 nM
same,TGI,HCT-116 colon,1700 nM
same,GI50,CAKI-1 renal,1660 nM
same,TGI,CAKI-1 renal,3020 nM
same,GI50,MCF7 breast,1460 nM
same,TGI,MCF7 breast,3120 nM
same,GI50,KM12 colon,1260 nM
same,TGI,KM12 colon,2510 nM
same,GI50,HS 578T breast,1310 nM
same,TGI,HS 578T breast,2690 nM
same,GI50,TK-10 renal,1600 nM
same,TGI,TK-10 renal,2950 nM
same,GI50,OVCAR-5 ovarian,1730 nM
same,TGI,OVCAR-5 ovarian,3240 nM
same,GI50,COLO 205 colon,1670 nM
same,TGI,COLO 205 colon,3150 nM
same,GI50,LOX IMVI melanoma,1470 nM
same,TGI,LOX IMVI melanoma,2790 nM
same,GI50,SNB-19 CNS,451 nM
same,TGI,SNB-19 CNS,1690 nM
same,GI50,OVCAR-3 ovarian,1890 nM
same,TGI,OVCAR-3 ovarian,3300 nM
same,GI50,HL-60(TB) leukemia,255 nM
same,TGI,HL-60(TB) leukemia,1230 nM
same,GI50,SNB-75 CNS,1300 nM
same,TGI,SNB-75 CNS,2590 nM
same,GI50,RXF 393 renal,1500 nM
same,TGI,RXF 393 renal,2820 nM
same,GI50,T-47D breast,1440 nM
same,TGI,T-47D breast,3480 nM
same,GI50,SF-268 CNS,1960 nM
same,TGI,SF-268 CNS,3390 nM
same,GI50,MDA-MB-231 breast,1450 nM
same,TGI,MDA-MB-231 breast,2760 nM
same,GI50,OVCAR-8 ovarian,1360 nM
same,TGI,OVCAR-8 ovarian,2730 nM
same,GI50,SK-OV-3 ovarian,1360 nM
same,TGI,SK-OV-3 ovarian,2640 nM
same,GI50,U251 CNS,675 nM
same,TGI,U251 CNS,1940 nM
same,GI50,HT29 colon,2300 nM
same,TGI,HT29 colon,6300 nM
same,GI50,MALME-3M melanoma,1180 nM
same,TGI,MALME-3M melanoma,2410 nM
same,GI50,DU-145 prostate,1810 nM
same,TGI,DU-145 prostate,3220 nM
same,GI50,NCI-H23 lung,1820 nM
same,TGI,NCI-H23 lung,4610 nM
same,GI50,NCI-H460 lung,364 nM
same,TGI,NCI-H460 lung,1320 nM
same,GI50,NCI-H522 lung,1550 nM
same,TGI,NCI-H522 lung,2990 nM
same,GI50,SK-MEL-2 melanoma,1470 nM
same,TGI,SK-MEL-2 melanoma,2880 nM
same,GI50,SF-295 CNS,1220 nM
same,TGI,SF-295 CNS,3190 nM
same,GI50,SK-MEL-28 melanoma,1620 nM
same,TGI,SK-MEL-28 melanoma,2980 nM
same,GI50,SK-MEL-5 melanoma,1590 nM
same,TGI,SK-MEL-5 melanoma,2940 nM
same,GI50,SN12C renal,1370 nM
same,TGI,SN12C renal,2740 nM
same,GI50,HCC-2998 colon,1540 nM
same,TGI,HCC-2998 colon,3100 nM
same,GI50,K-562 leukemia,1280 nM
same,TGI,K-562 leukemia,2620 nM
same,GI50,SW-620 colon,1430 nM
same,TGI,SW-620 colon,2730 nM
same,GI50,MDA-MB-435,1640 nM
same,TGI,MDA-MB-435,3000 nM
